Measured values as given in patent US12653190B2, “Heteroaryl-triazole compounds as pesticides” (Bayer Aktiengesellschaft, priority 2020, dated 2026).

Tests used:
Assay type in all cases: in vivo
[1] = test system: larvae of the southern green stink bug (Nezara viridula); assay: Nezara viridula spray test; details: 96 h, 100 g/ha, after 4 days, barley plants
How it was run: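 Compound in acetone/DMF was diluted in water with 1000 ppm alkylarylpolyglycol ether emulsifier. Barley plants were sprayed with it, then infested with Nezara viridula larvae. Mortality % was scored after 4 days (100% = all killed).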

[2] = test system: Rhipicephalus (Boophilus) microplus larvae (strain Parkhurst, resistant against synthetic pyrethroids); assay: Rhipicephalus (Boophilus) microplus in-vitro contact test, larval cattle tick; details: 5 μg/cm^2 (=500 g/ha), after 48 hours, read-out: efficacy (larvae dead or moribund)
How it was run: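 Acetone solutions coated onto glass tube walls, 900 ppm giving 5 μg/cm^2; 20–50 larvae per tube after solvent evaporation. Incubated 48 h at 27 °C, 85% relative humidity; efficacy from negative geotaxis, 100% meaning all larvae dead or moribund.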

[3] = test system: green peach aphid (Myzus persicae); assay: Myzus persicae oral test; details: 120 h, 4 ppm, after 5 days
Method: • Solvent: 100 parts by weight acetone
To produce a suitable preparation of active compound, 1 part by weight of active compound is mixed with the stated amount of solvent, and the concentrate is diluted with water to the desired concentration.
50 μL compound solution is filled in microtiter plates and 150 μL IPL41 insect medium (33%+15% sugar) is added to obtain a total volume of 200 μL per well. Afterwards the plates are sealed with parafilm through which a mixed population of the green peach aphid (Myzus persicae) can suck on the compound preparation.
After 5 days mortality in % is determined. 100% means all aphids have been killed and 0% means none of the aphids have been killed.

[4] = test system: fall armyworm larvae (Spodoptera frugiperda); assay: Spodoptera frugiperda spray test; details: in Zea mays, 168 h
How it was run: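 Maize leaf sections were sprayed with compound in acetone/dimethylformamide diluted in water with 1000 ppm emulsifier, dried, then infested with larvae. Mortality in % was scored after 7 days, 100% meaning all caterpillars killed.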

[5] = test system: adult mosquitoes Aedes aegypti strain MONHEIM; assay: Aedes aegypti test (AEDSAE surface treatment & contact assay); details: 24 hours after contact, read-out: efficacy (mortality)
Method: Aedes aegypti Test (AEDSAE Surface Treatment & Contact Assay)
• Solvent: Aceton+2000 ppm rapeseed oil methyl ester (RME)
In order to produce a sufficient, active ingredient containing solution it is necessary to solve the test compound in the solvent-mix (acetone at 2 mg/ml/RME 2000 ppm). This solution is pipetted onto a glazed tile and after evaporation of the acetone, adult mosquitoes of the species Aedes aegypti strain MONHEIM are placed onto the dried surface. The exposure time is 30 minutes.
Mortality in percent (%) is determined 24 hours after contact of the insects to the treated surface. 100% mortality means that all tested insects are dead, whereas 0% means that no insect died.

[6] = test system: green peach aphid (Myzus persicae); assay: Myzus persicae spray test; details: foliar, 120 h, after 5 days, Chinese cabbage leaf disks
How it was run: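 Chinese cabbage leaf disks infested with all aphid instars were sprayed with compound in acetone/DMF, diluted in water with 1000 ppm alkylarylpolyglycol ether emulsifier. Mortality (%) scored after 5 days, 100% meaning all aphids killed.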

[7] = test system: adult engorged female ticks (Rhipicephalus microplus); assay: Rhipicephalus (Boophilus) microplus injection test; details: 168 h, egg deposition monitored after 7 days, read-out: efficacy (infertile eggs)
How it was run: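 Five adult engorged female ticks each injected with 1 μL of DMSO compound solution into the abdomen, then kept in a climate chamber. Fertile egg deposition assessed after 7 days, with hatching followed to about 42 days; efficacy 100% means all eggs infertile, 0% all fertile.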

[8] = test system: adult flies Musca domestica strain WHO-N; assay: Musca domestica test (MUSCDO surface treatment & contact assay); details: surface concentration 4 mg/m^2, 30 minutes exposure, 24 hours after contact, read-out: efficacy (mortality)
How it was run: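 Compound dissolved in acetone (2 mg/ml) with 2000 ppm rapeseed oil methyl ester and dried onto glazed tiles. Adult WHO-N strain flies were held on the treated surface for 30 minutes, with % mortality scored 24 hours after contact.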

[9] = test system: adult brown dog ticks (Rhipicephalus sanguineus); assay: Rhipicephalus sanguineus in-vitro contact test, adult brown dog ticks; details: 5 μg/cm^2 (=500 g/ha), after 48 hours, read-out: efficacy (ticks dead or moribund)
Method: Rhipicephalus sanguineus—In-Vitro Contact Tests with Adult Brown Dog Ticks
9 mg compound is solved in 1 mL acetone and diluted with acetone to the desired concentration. 250 μL of the test solution is filled in 25 mL glass test tubes and homogeneously distributed on the inner walls by rotation and tilting on a shaking device (2 h at 30 rpm). With a compound concentration of 900 ppm, an inner surface of 44.7 cm^2 and a homogeneous distribution, a dose of 5 μg/cm^2 is achieved.
After the solvent has evaporated, each test tube is filled with 5-10 adult brown dog ticks (Rhipicephalus sanguineus), closed with a perforated lid and incubated in a lying position at room temperature and relative humidity. After 48 hours efficacy is determined. The ticks are patted on the ground of the tubes and are incubated on a heating plate at 45-50° C. for at most 5 minutes Immotile or uncoordinated moving ticks, which are not able to escape the heat by climbing upwards, are marked as dead or moribund.
An efficacy of 100% means all ticks are dead or moribund; 0% means no ticks are dead or moribund.

C[C@H](NC(=O)c1cc(Cl)cc(OS(C)(=O)=O)c1)c1ncnn1-c1ccc(C#N)cn1 [Example I-46]
80 to 100%: mortality at 4 mg/m2 ([5]; surface concentration 4 mg/m^2, 30 minutes exposure) | mortality at 20 mg/m2 ([5]; surface concentration 20 mg/m^2, 30 minutes exposure) | mortality at 4 mg/m2 [8]
100%: mortality at 100 g/ha [1] | pest or weed control at 5 µg/cm2, 5 µg/cm2 [2] | mortality at 4 ppm [3] | mortality at 100 g/ha [4] | mortality at 100 g/ha [6] | pest or weed control at 4 µg/tick ([7]; 4 μg/tick injected) | pest or weed control at 20 µg/tick ([7]; 20 μg/tick injected) | pest or weed control at 5 µg/cm2, 5 µg/cm2 [9]
